For 64 molecules, Papp results are on record in PubChem BioAssay AID1508612.

The Papp is the rate of passage across a membrane or cell layer, normalised by area and donor concentration. A lower Papp goes with poor permeation.

The data set is described as follows: passive permeability, PAMPA, ADME assay (AID 1508612). The following applies: pH 7.4, 30.0 min, 50.0 µM. (In PAMPA a lipid-coated filter parts donor from acceptor wells.)

`COc1ccnc(NC(=S)N2CCN(c3ccccc3C(F)(F)F)CC2)c1` showed a Papp of 489 ×10⁻⁶ cm/s.
The molecule `NC(=O)N1CCCC(C(=O)N2CCCN(c3ccc(F)cc3)CC2)C1` (centres undefined) returned a Papp of 111 ×10⁻⁶ cm/s.
In turn, `Cc1ccc2nc(-c3ccccn3)c(Nc3ccccc3C)n2c1` returned a Papp above 1000 ×10⁻⁶ cm/s.
Turning to `CCCNC(=O)c1ccc2c(c1)N=C(C)c1c(C)ccc(C)c1S2`, the Papp is above 1000 ×10⁻⁶ cm/s.
`NC(=O)C(=O)N/N=C/c1ccc([N+](=O)[O-])o1` had a Papp of 7.99 ×10⁻⁶ cm/s.
For the molecule `COC(=O)c1ccc([C@H]2c3[nH]c4ccccc4c3C[C@H](C(=O)OC)N2C(=O)CCl)cc1`, the Papp was above 1000 ×10⁻⁶ cm/s.
In turn, `Cc1ccc2oc3c(c(=O)c2c1)C(c1ccc(O)cc1)N(CCCN(C)C)C3=O` (centres undefined) gave a Papp below 1 ×10⁻⁶ cm/s.
In turn, `C[C@H]1CN(C(=O)c2nn(C)c3ccccc23)C[C@@H]1c1nc(-c2ccncc2)no1` came in with a Papp of 907 ×10⁻⁶ cm/s.
The same measure for `C=C1[C@@H](C)C2[C@H](Cc3ccccc3)NC(=O)[C@@]23C(/C=C/C[C@H](C)C[C@@](C)(O)/C=C/[C@@H]3OC(C)=O)[C@@H]1O` (some centres undefined): 50 ×10⁻⁶ cm/s; for `Nc1nc2c(s1)C(c1cccc(Cl)c1Cl)CC(=O)N2` (centres undefined): 505 ×10⁻⁶ cm/s; for `COc1ccc(OC)c(-c2cc(C(=O)N3CCN(c4ncccn4)CC3)c3ccccc3n2)c1`: above 1000 ×10⁻⁶ cm/s.
The same measure for `Cc1cc(-c2nnc3n2CCCCC3)c(C)n1-c1cccc(Cl)c1`: above 1000 ×10⁻⁶ cm/s; for `Cc1cn2nc(-c3nc(C4CCCN(C(=O)c5ccccc5)C4)no3)cc2c(=O)[nH]1` (centres undefined): 136 ×10⁻⁶ cm/s.
Regarding `CC1=C(C(=O)Nc2nc3ccccc3s2)C(c2[nH]ncc2Cl)N=C(Nc2nc3ccccc3o2)N1` (centres undefined), the apparent permeability (Papp) was 6 ×10⁻⁶ cm/s. Against the preceding molecule, the Papp is about 23-fold lower.
Regarding `COc1cccc(Cn2c(=O)n(-c3cccc(Cl)c3C)c(=O)c3c4c(sc32)CN(C(C)=O)CC4)c1`, the Papp is above 1000 ×10⁻⁶ cm/s.
In the case of `CCc1cccc(NS(=O)(=O)c2ccc3c(c2)CC(C)N3C(=O)C2CC2)c1` (centres undefined), the apparent permeability (Papp) was above 1000 ×10⁻⁶ cm/s.
`CCc1nc2c(sc3nc4c(cc32)COC(C)(C)C4)c(=O)n1Cc1ccco1`: the Papp was above 1000 ×10⁻⁶ cm/s.
As to `Cc1cc(-c2nnc3n2CCCCC3)c(C)n1-c1ccc(C(C)(C)C)cc1`, the Papp is above 1000 ×10⁻⁶ cm/s.
Molecule `CC(C)(C)n1cnc2cc(C(=O)N3CCCCC3)ccc21` gave an apparent permeability (Papp) of 106 ×10⁻⁶ cm/s.
`NC(=O)C1CCN(c2nc(-c3ccc4c(c3)CCO4)cs2)CC1`: the Papp was above 1000 ×10⁻⁶ cm/s.
With `COc1ccc(CNC(=O)CCCn2nc(C)c3c(C)n(-c4ccc(C)cc4)nc3c2=O)cc1OC`, the Papp is 235 ×10⁻⁶ cm/s.
`CC(=O)N1CCC(NC(=O)c2nc(-c3ccccc3)cc3[nH]ccc23)CC1` displayed a Papp of 288 ×10⁻⁶ cm/s.
Molecule `CC(C)c1ccccc1-c1ncc(F)c(NCC2CCN(c3cnccn3)C2)n1` (centres undefined) came in with a Papp above 1000 ×10⁻⁶ cm/s.
Next, `Fc1cc(Nc2nc(-c3ccncc3)nc3ccccc23)ccc1-c1cc(F)c(F)c(F)c1`: 21.1 ×10⁻⁶ cm/s; `Nc1nc2c(s1)C(c1cccc(F)c1F)CC(=O)N2` (centres undefined): 9.86 ×10⁻⁶ cm/s; `O=C1CCCC2=C1C(c1[nH]ncc1Cl)N=C(Nc1nc3cc([S+](=O)([O-])N4CCOCC4)ccc3o1)N2` (centres undefined): 169 ×10⁻⁶ cm/s.
The same measure for `Cc1ccc(S(=O)(=O)Nc2cnccc2C(=O)Nc2nc(-c3ccccc3)cs2)cc1`: 724 ×10⁻⁶ cm/s; for `COc1ncc(-c2ccc3c(Nc4cc(Oc5cc(F)cc(F)c5)cc(C(=O)O)c4)c(S(=O)(=O)NC4CC4)cnc3c2)c(OC)n1`: below 1 ×10⁻⁶ cm/s.
Next, `Clc1ccccc1-c1nc(NCc2ccc(-c3cccnc3)cc2)c2ccccc2n1`: 944 ×10⁻⁶ cm/s.
In turn, `O=C(Nc1ccc([S+](=O)([O-])Nc2nccs2)cc1)c1ccccn1` gave an apparent permeability coefficient (Papp) of 3 ×10⁻⁶ cm/s. This Papp is about 310-fold lower than that of the molecule before.
Next, `Cc1cc(SCc2sc(-c3ccc(C(F)(F)F)cc3)nc2C)ccc1OCC(=O)O`: 520 ×10⁻⁶ cm/s; `NC(=O)C1CCN(c2nc(-c3ccc([N+](=O)[O-])cc3)cs2)CC1`: 604 ×10⁻⁶ cm/s; `NC(=O)c1cnc(N[C@@H]2CCCC[C@@H]2N)nc1Nc1cccc(-n2nccn2)c1`: 11.7 ×10⁻⁶ cm/s.
The same measure for `CC(=O)Nc1cccc(-c2csc(Nc3cc(C)ccn3)n2)c1`: above 1000 ×10⁻⁶ cm/s; for `COc1cc([C@@H](CC(=O)O)c2ccc(C)c(CN3C[C@@H](C)Oc4ccccc4S3(=O)=O)c2)cc2nnn(C)c12`: 2.9 ×10⁻⁶ cm/s; for `CC1CCN(S(=O)(=O)c2ccc3c(ccc(=O)n3CC(=O)NCc3ccc(Cl)cc3)c2)CC1`: 799 ×10⁻⁶ cm/s.
`COc1ccccc1NC(=O)C1=C(C)Nc2c(C(=O)Nc3ccc(F)cc3)cnn2C1c1ccc(Cl)cc1` (centres undefined) came in with a Papp of 302 ×10⁻⁶ cm/s.
`COc1ccc(-c2csc(NC(=O)c3ccccc3NS(=O)(=O)c3ccc(C)cc3)n2)cc1` showed a Papp of 7.7 ×10⁻⁶ cm/s.
`CCOc1ccc(CCNC(=O)c2cc3sccc3n2Cc2ccncc2)cc1OCC` registered a Papp above 1000 ×10⁻⁶ cm/s.
On to `O=c1[nH]c(N2CCOCC2)nc2c1CCN(Cc1cc(Cl)ccc1F)CC2`, for which the Papp was above 1000 ×10⁻⁶ cm/s.
`NC(=O)C1CCN(c2nc(-c3ccccc3N)cs2)CC1` had an apparent permeability coefficient (Papp) of 136 ×10⁻⁶ cm/s.
The same measure for `COc1ccc(CCN2C(=O)N(c3ccc(F)cc3)C(=O)C2CC(=O)Nc2ccc(F)c(F)c2)cc1` (centres undefined): 719 ×10⁻⁶ cm/s.
`O=C(Nc1ccccc1)C1CCN(c2nc(-c3ccc(Br)cc3)cs2)CC1` displayed a Papp of 48.6 ×10⁻⁶ cm/s.
The molecule `COc1ccccc1C(=O)Nc1nnc(SCc2cc(=O)c3ccccc3[nH]2)s1` had a Papp of 287 ×10⁻⁶ cm/s.
As for `Cc1cnc(-c2ccccc2C(F)F)nc1NCc1ccc(-c2cccnc2)cc1`, the apparent permeability (Papp) was above 1000 ×10⁻⁶ cm/s.
As for `COc1ccc(CNc2ccc(S(=O)(=O)Nc3nccs3)cc2)cc1O`, the Papp was 19.3 ×10⁻⁶ cm/s.
With `Nc1c(S(=O)(=O)c2cccs2)c2nc3ccccc3nc2n1Cc1ccccc1`, the Papp was above 1000 ×10⁻⁶ cm/s.
`O=[S+]([O-])(Nc1nccs1)c1ccc(NCc2cccc3c2NCC3)cc1` came in with a Papp of 18.9 ×10⁻⁶ cm/s.
`CN(C)c1cccc(-c2nnc(N3CCC(C(N)=O)CC3)s2)c1` had a Papp of 119 ×10⁻⁶ cm/s.
For `COc1ccc(-n2nc(C3CCCN(CC4CCCCC4)C3)[nH]c2=O)cc1` (centres undefined), the Papp was above 1000 ×10⁻⁶ cm/s.
`Nc1ncc(S(=O)(=O)N2CCOCC2)s1` gave a Papp of 15.5 ×10⁻⁶ cm/s.
On to `O=C(NCc1ccccc1)c1cn2cc(-c3ccccc3)sc2n1`, for which the Papp is above 1000 ×10⁻⁶ cm/s.
The molecule `Fc1ccc(Nc2nc(-c3ccncc3F)nc3ccccc23)cc1F` came in with a Papp of 325 ×10⁻⁶ cm/s.
The same measure for `Cc1nc2ccc(C(=O)N3CCC4(CC3)CC(=O)c3c(cnn3C(C)C)C4)cc2[nH]1`: 16.5 ×10⁻⁶ cm/s.
Regarding `CCOc1ccccc1C(=O)Nc1cccnc1C(=O)Nc1cccc(S(=O)(=O)C(F)(F)F)c1`, the Papp was found to be 8.1 ×10⁻⁶ cm/s.
Next, `O=C(Nc1ccc(S(=O)(=O)Nc2nccs2)cc1)c1ccnc2ccccc12`: 2.3 ×10⁻⁶ cm/s; `COc1ccc(-n2cnc3cc(C(=O)N4CCCCC4)ccc32)cc1`: 624 ×10⁻⁶ cm/s; `CN(C)CCN1C(=O)c2cccc3cc(N)cc(c23)C1=O`: 339 ×10⁻⁶ cm/s.
`Cc1nn2c(c1-c1ccccc1OCc1ccccc1)N(C(=O)Cc1ccc3c(c1)OCO3)CCC2` returned a Papp above 1000 ×10⁻⁶ cm/s.
The molecule `CC[C@H]1C=CC=CC[C@@H](C)[C@H](O)[C@@](C)(O)C(=O)[C@@H](C)[C@H](O)[C@@H](C)C(=O)[C@@H](C)[C@H](O)[C@@H](C)C=CC(=O)O[C@@H]2[C@@H](C)[C@H](CC1)O[C@]1(CC[C@H](C)[C@H](C[C@@H](C)O)O1)[C@H]2C` registered a Papp below 1 ×10⁻⁶ cm/s.
With `Nc1c(-c2ccccc2)cc[nH]c1=O`, the Papp came to 613 ×10⁻⁶ cm/s.
Molecule `COc1cccc(CNc2ccc(S(=O)(=O)Nc3nccs3)cc2)c1OC` displayed a Papp of 313 ×10⁻⁶ cm/s.
`COC(=O)Nc1nc2ccc(SC(C)C)cc2[nH]1`: the Papp is 433 ×10⁻⁶ cm/s.
In the case of `Cc1cccc(S(=O)(=O)Nc2cnccc2C(=O)Nc2nc(-c3ccccc3)cs2)c1`, the Papp came to 860 ×10⁻⁶ cm/s. Against the preceding molecule, the Papp is about 2-fold higher.
